Laboratory results taken from publication PMC6008491, “Discovery of a novel allosteric inhibitor scaffold for polyadenosine-diphosphate-ribose polymerase 14 (PARP14) macrodomain 2” (Bioorganic & Medicinal Chemistry, 2018).
Like-named read-outs stand apart in the source and are kept apart here.

Tests used:
[1] = target: T1, PARP14 MD2 (Homo sapiens, UniProt Q460N5); experiment: AlphaScreen competitive binding assay, displacement of ADP-ribose peptide from PARP14 MD2; design: PARP14 MD2 (second MD of PARP14)
T1 sequence (Q460N5 1003-1190 limits assumed): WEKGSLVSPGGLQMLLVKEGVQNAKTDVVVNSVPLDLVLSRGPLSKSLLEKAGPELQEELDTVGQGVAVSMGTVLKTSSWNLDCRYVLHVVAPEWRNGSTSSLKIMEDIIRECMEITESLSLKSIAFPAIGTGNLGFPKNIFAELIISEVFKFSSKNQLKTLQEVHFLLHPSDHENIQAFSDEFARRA
Description: (§1) Compounds were profiled for binding activity with PARP14 MD2 through a competitive (AlphaScreen™) binding assay measuring the displacement of ADP-ribose peptide from PARP14 MD2.[11a]

[2] = target: T1, PARP14 MD2; experiment: Biophysical KD determination (Bio-Layer Interferometry or Isothermal Titration Calorimetry); format: binding; design: PARP14 MD2 (second MD of PARP14)
Description: as §1

[3] = target: T1, PARP14 MD2; experiment: BioLayer Interferometry (BLI)
[4] = Table 2, AlphaScreen, PARP14 MD2, read-out: IC50

| IC50 [1, 4] | Kd ([2]; Table 2, BLI or ITC) | Structure (SMILES) | other results |
| --- | --- | --- | --- |
| 1200 nM | 1300 nM | N#Cc1ccc(F)c(CS(=O)(=O)Nc2ccccc2-c2cccc3c2[nH]c2ccccc23)c1 [compound 100, N-(2-(9H-Carbazol-1-yl)phenyl)-1-(5-cyano-2-fluorophenyl)methanesulfonamide] | – |
| 2100 ± 100 nM | 3900 nM | O=C(Cc1cnccn1)Nc1ccccc1-c1cccc2c1[nH]c1ccccc12 [compound 85, N-(2-(9H-Carbazol-1-yl)phenyl)-2-(pyrazin-2-yl)acetamide] | – |
| – | – | CS(=O)(=O)Nc1cc(C#N)ccc1-c1cccc2c1[nH]c1ccccc12 [compound 56, N-(2-(9H-Carbazol-1-yl)-5-cyanophenyl)methanesulfonamide] | Kd ([2]; Table 1, BLI or ITC): 5200 ± 1700 nM |
| 660 ± 30 nM | 550 nM | N#Cc1cccc(CS(=O)(=O)Nc2ccccc2-c2cccc3c2[nH]c2ccccc23)c1 [compound 108, N-(2-(9H-Carbazol-1-yl)phenyl)-1-(3-cyanophenyl)methanesulfonamide] | Kd ([3]; read-out: KD (BLI)): 550 nM; Kd ([3]; read-out: calculated KD (BLI)): 550 nM |
| 1100 nM | 1500 nM | O=C(Cc1cccnc1)Nc1ccccc1-c1cccc2c1[nH]c1ccccc12 [compound 83, N-(2-(9H-Carbazol-1-yl)phenyl)-2-(pyridin-3-yl)acetamide] | – |
| – | – | CC(=O)Nc1cccc(C)c1-c1cccc2c1[nH]c1ccccc12 [compound 57, N-(2-(9H-Carbazol-1-yl)-3-methylphenyl)acetamide] | IC50 ([1]; Table 1, AlphaScreen, PARP14 MD2, read-out: IC50): 1700 ± 100 nM; Kd ([2]; Table 1, BLI or ITC): 1600 ± 700 nM |
| 1000 nM | 2700 nM | Cc1ccc(CC(=O)Nc2ccccc2-c2cccc3c2[nH]c2ccccc23)cn1 [compound 84, N-(2-(9H-Carbazol-1-yl)phenyl)-2-(6-methylpyridin-3-yl)acetamide] | – |
| – | – | CC(=O)Nc1ccccc1-c1cccc2c1[nH]c1ccc(Cl)cc12 [compound 38, N-[2-(6-Chloro-9H-carbazol-1-yl)phenyl]acetamide] | IC50 ([1]; text and figures, read-out: PARP14 MD2 IC50): 3000 nM |
